How the values were obtained:
Type in all cases: in vivo, mice
mecca- lymphosarcoma = assay: combination chemotherapy with 5 FU, implanted mecca lymphosarcoma (Table 3); conditions: 5 FU 4 mg./kg. i.p. once daily, A 18.75 mg./kg. s.c. twice daily
Protocol: (§1) In a typical experiment, laboratory mice were infected by a subcutaneous implantation of a tumor tissue in the axillary region of the body. The implantations were accomplished by means of a trocar. Initial tumor size in each animal generally was about 2 square millimeters. Tumor size was then measured periodically as length and width in mm. Typical tumor systems implanted included adenocarcinoma 755, an Aly Fast strain of bronchiogenic carcinoma, and mecca lymphosarcoma. Oncolytic agents utilized in the tests to determine the potentiating effects of the compounds of the invention.include cytoxan, 5-fluorouracil, vindesine, methotrexate and 6-mercaptopurine. Twenty or thirty infected animals generally were selected as controls and received placebo. Ten infected animals normally were selected to receive a known oncolytic agent. Another ten infected animals were administered the known oncolytic agent in addition to a compound of this invention.
A similar study was carried out to determine the synergistic effect of N-(2-phenyl-2-hydroxyethyl)-1,1-dimethyl-3-(4-hydroxyphenyl)-propylaminium bromide (compound A) on the antineoplastic activity of 5-fluorouracil (designated in Table 3 as 5 FU) in the treatment of a mecca- lymphosarcoma in mice. 5-Fluorouracil was administered intraperitoneally at the rate of 4 mg./kg. once each day to a group of five test animals. Another group of five infected animals received the combination of 4 mg./kg. of 5 FU given intraperitoneally once each day plus the potentiating agent (compound A) given subcutaneously twice each day at the dose of 18.75 mg./kg. A group of 20 infected animals received placebo. Measurements of average tumor size for each group of animals were made on the tenth, fourteenth and eighteenth day following initial tumor implantation and dosing. Column I under each of the reported days gives the average tumor size in square millimeters. Column II under each of the reported days gives the number of surviving animals out of each test group. […] Moreover, after eighteen days of treatment, three of the five animals receiving combination chemotherapy were still alive, whereas all of the control animals and those receiving 5-FU alone had died.

755 adenocarcinoma [1] = assay: combination chemotherapy with 5-fluorouracil, implanted 755 adenocarcinoma (Table 6); conditions: for number of tumor free animals out of those still living / average tumor size: 5 FU 8 mg./kg. i.p. days 5, 9, 13, B 7.5 mg./kg. s.c. twice daily days 5 through 14
Protocol: as §1, with “Twenty or thirty infected animals generally were selected as controls and received placebo.” left out
5-Fluorouracil is essentially ineffective against the 755 adenocarcinoma in mice. […] Mice were infected by an implantation of the 755 adenocarcinoma. Thirty animals were given placebo, ten were given 5-fluorouracil alone, and ten were given N-(2-phenyl-2-hydroxyethyl)-1,1-dimethyl-3-(4-aminocarbonylphenyl)propylaminium chloride in combination with 5-fluorouracil. Treatment in all cases was started five days after implantation of the tumor system. 5-Fluorouracil was administered intraperitoneally at the rate of 8 mg./kg. given once on days 5, 9 and 13 following implantation, both to the animals receiving 5-FU alone and the combination. The animals undergoing combination chemotherapy received, in addition to 5-FU, N-(2-phenyl-2-hydroxyethyl)-l,l-dimethyl-3-(4-aminocarbonylphenyl)propylaminium chloride (compound B) at the rate of 7.5 mg./kg. given subcutaneously twice daily on days 5 through 14 of the test. Column I under each of the days of measurement reports the average tumor size in square millimeters of each test group. Column II under each of the days of measurement is the number of tumor free animals out of those still living on that day.

[2] = tested on: adenocarcinoma tumor resembling human breast tumor (the 755 tumor system); assay: combination chemotherapy with 6 MP, implanted 755 adenocarcinoma (Table 2); conditions: 6 MP 1.5 mg./kg. orally once daily, A 3.75 mg./kg. s.c. twice daily
Protocol: as §1, with “Twenty or thirty infected animals generally were selected as controls and received placebo.” left out
According to the test, 6 MP was administered alone to 10 mice orally at the dose of 1.5 mg./kg. once each day for twenty-eight days. Another group of ten mice received 6 MP daily (1.5 mg./kg.) plus the compound of this invention (A), which was administered subcutaneously at the rate of 3.75 mg./kg. twice daily for twenty-eight days. […] The average tumor size for the test group on the indicated day of measurement is reported in column I under each of the reported days of measurement. In column II of each of the reported days of measurement is recorded the number of surviving animals out of the particular test group.

755 adenocarcinoma [3] = assay: combination chemotherapy with 6-mercaptopurine, implanted 755 adenocarcinoma (Table 7); conditions: by day 29; 6 MP 4 mg./kg. i.p. once per day on days 5, 9, 13
Protocol: as §1
Mice were infected by implantation of a 755 adenocarcinoma. Thirty mice were held as controls and received only placebo. Ten mice were administered 4 mg./kg. of 6-mercaptopurine (6 MP) intraperitoneally once per day on the fifth, ninth and thirteenth days following implantation. […]

O=c1[nH]cc(F)c(=O)[nH]1 [5 FU, 5-fluorouracil]
number of surviving animals out of test group (mecca- lymphosarcoma; Day 0): 5/5
average tumor size (mecca- lymphosarcoma; Day 10): 490 square millimeters
number of surviving animals out of test group (mecca- lymphosarcoma; Day 10): 5/5
average tumor size (mecca- lymphosarcoma; Day 14): 490 square millimeters
number of surviving animals out of test group (mecca- lymphosarcoma; Day 14): 4/5
number of surviving animals out of test group (mecca- lymphosarcoma; Day 18): 0/5
number of tumor free animals out of those still living (755 adenocarcinoma [1]; Day 0): 0/10
average tumor size (755 adenocarcinoma [1]; Day 5): 95 square millimeters
number of tumor free animals out of those still living (755 adenocarcinoma [1]; Day 5): 0/10
average tumor size (755 adenocarcinoma [1]; Day 12): 350 square millimeters
number of tumor free animals out of those still living (755 adenocarcinoma [1]; Day 12): 0/10
average tumor size (755 adenocarcinoma [1]; Day 17): 630 square millimeters
number of tumor free animals out of those still living (755 adenocarcinoma [1]; Day 17): 0/9
average tumor size (755 adenocarcinoma [1]; Day 23): 680 square millimeters
number of tumor free animals out of those still living (755 adenocarcinoma [1]; Day 23): 0/6
number of tumor free animals out of those still living (755 adenocarcinoma [1]; Day 29): 0/0
number of tumor free animals out of those still living (755 adenocarcinoma [1]; Day 73): 0/0
effectiveness in the treatment of the 755 adenocarcinoma (755 adenocarcinoma [1]; mice, summary in words of Table 6): ineffective

Sc1ncnc2nc[nH]c12 [6 MP, 6-mercaptopurine]
number of surviving animals out of test group ([2]; Day 0): 10/10
average tumor size ([2]; Day 9): 100 square millimeters
number of surviving animals out of test group ([2]; Day 9): 9/10
average tumor size ([2]; Day 17): 340 square millimeters
number of surviving animals out of test group ([2]; Day 17): 7/10
average tumor size ([2]; Day 23): 680 square millimeters
number of surviving animals out of test group ([2]; Day 23): 6/10
average tumor size ([2]; Day 28): 1050 square millimeters
number of surviving animals out of test group ([2]; Day 28): 1/10
animals that had died out of ten (755 adenocarcinoma [3]): All ten

From patent EP0007206A1, “Phenethanolamines, their formulations, preparation and use” (ELI LILLY AND COMPANY, priority 1978, dated 1980)
